Measurements as given in publication PMC7284374 (Pharmaceutics, 2020).
Counter-ions that a name gives are not always drawn. Like-named read-outs stand apart in the source and are kept apart here. One block for each compound: values may come before it.

Key:
in vivo [1] = conditions: rat
[2] = 10 µM metformin
in vivo [3] = conditions: rat, plasma, po, 30 mg/kg
[4] = cited from earlier work
[5] = 10 µM metformin; remark: listed apart in the source
in vivo [6] = conditions: rat, plasma, iv, 30 mg/kg
[7] = Intravenous pharmacokinetics of verapamil and norverapamil with and without metformin in rats; conditions: for CL renal: plasma and urine, CLR; for half-life: Terminal half-life; for GI24 h: gastrointestinal tract at 24 h; for Ae0–24 h: urine up to 24 h
[8] = Oral pharmacokinetics of verapamil and norverapamil with and without metformin in rats; conditions: for CL renal: plasma and urine, CLR; for half-life: Terminal half-life; for GI24 h: gastrointestinal tract at 24 h; for Ae0–24 h: urine up to 24 h
[9] = rats, oral administration of both drugs together
[10] = rats, intravenous administration of both drugs together
[11] = rat, plasma, iv, 20 mg/kg, rats, iv verapamil 20 mg/kg, with metformin 30 mg/kg
[12] = rat, plasma, iv, 20 mg/kg, rats, iv verapamil 20 mg/kg, without metformin
[13] = rats, iv verapamil 20 mg/kg, with metformin 30 mg/kg
[14] = rats, iv verapamil 20 mg/kg, without metformin
[15] = rat, plasma, po, 20 mg/kg, rats, oral verapamil 20 mg/kg, with metformin 30 mg/kg
[16] = rat, plasma, po, 20 mg/kg, rats, oral verapamil 20 mg/kg, without metformin
[17] = rats, oral verapamil 20 mg/kg, with metformin 30 mg/kg
[18] = rats, oral verapamil 20 mg/kg, without metformin

SMILES: CN(C)C(=N)N=C(N)N [metformin, Metformin hydrochloride]
concentration at 0.5 h (in vivo [1]): 2910 ± 894 ng/mL
effect of metformin on verapamil metabolism [2]: did not affect verapamil metabolism
AUC (in vivo [3]): 7870 ng·h/mL
Cmax (in vivo [3]): 2000 ± 328 ng/mL
renal excretion of metformin (OCT2-mediated) [4]: ~ 70 % of the metformin dose
effect of metformin on verapamil metabolism [5]: did not affect verapamil metabolism
AUC (in vivo [6]): 26500 ng·h/mL
MRT (in vivo [6]): 0.357 h
Vd (in vivo [6]): 0.349 ± 0.128 L/kg

CL renal ([7]; rat, iv, 20 mg/kg, rats, iv verapamil 20 mg/kg, with metformin 30 mg/kg): 0.0626 ± 0.0535 mL/min/kg
CL renal ([7]; rat, iv, 20 mg/kg, rats, iv verapamil 20 mg/kg, without metformin): 0.109 ± 0.102 mL/min/kg
Tmax ([7]; rat, plasma, iv, 20 mg/kg): 1 h
AUC [7, 11]: 3320 ng·h/mL
AUC [7, 12]: 3130 ng·h/mL
Cmax [7, 11]: 1090 ± 308 ng/mL
Cmax [7, 12]: 1240 ± 386 ng/mL
half-life [7, 11]: 1.05 ± 0.253 h
half-life [7, 12]: 0.847 ± 0.17 h
GI24 h [7, 13]: 0.126 ± 0.0927 % of dose
Tmax ([7]; rats, iv verapamil 20 mg/kg, with metformin 30 mg/kg, median (range)): 60 (30−90) min
Ae0–24 h [7, 13]: 0.0585 ± 0.0453 % of dose
GI24 h [7, 14]: 0.146 ± 0.0841 % of dose
Ae0–24 h [7, 14]: 0.0872 ± 0.0691 % of dose
CL renal ([8]; rat, po, 20 mg/kg, rats, oral verapamil 20 mg/kg, with metformin 30 mg/kg): 0.562 ± 0.445 mL/min/kg
CL renal ([8]; rat, po, 20 mg/kg, rats, oral verapamil 20 mg/kg, without metformin): 0.336 ± 0.107 mL/min/kg
Tmax ([8]; rat, plasma, po, 20 mg/kg): 0.75 h
AUC [8, 15]: 898 ng·h/mL
AUC [8, 16]: 1140 ng·h/mL
Cmax [8, 15]: 273 ± 123 ng/mL
Cmax [8, 16]: 267 ± 141 ng/mL
half-life [8, 15]: 1.95 ± 0.742 h
half-life [8, 16]: 2.8 ± 1.22 h
GI24 h [8, 17]: 0.0782 ± 0.0514 % of dose
Tmax ([8]; rats, oral verapamil 20 mg/kg, with metformin 30 mg/kg, median (range)): 45 (15–105) min
Ae0–24 h [8, 17]: 0.113 ± 0.0522 % of dose
GI24 h [8, 18]: 0.0870 ± 0.0665 % of dose
Ae0–24 h [8, 18]: 0.104 ± 0.0567 % of dose
SMILES: COc1ccc(CCNCCCC(C#N)(c2ccc(OC)c(OC)c2)C(C)C)cc1OC (stereo not drawn) [norverapamil]

SMILES: COc1ccc(CCN(C)CCCC(C#N)(c2ccc(OC)c(OC)c2)C(C)C)cc1OC (stereo not drawn) [verapamil, Verapamil hydrochloride]
effect of verapamil on the metformin concentration in the liver [9]: did not cause any change
effect of verapamil on the metformin concentration in the liver [10]: did not cause any change
